Earlier results, collected in PubChem BioAssay AID1259409 (Chemical Carcinogenesis Research Information System (CCRIS), 2018).

Tested on: rodent chemically induced tumor inhibition, incidence and multiplicity
Experiment: CCRIS tumor inhibitor studies
Conditions: Dose [Inhibitor]: 0, Route [Inhibitor]: ORAL, Promoter: NONE USED

## Cc1c(-c2cnccn2)ssc1=S
Carcinogen: 2-AMINO-1-METHYL-6-PHENYLIMIDAZO[4,5-B]PYRIDINE, 105650-23-5, 200 PPM IN DIET FOR 52 WK (STUDY DURATION: 52 WK), Species: RAT, Strain/Sex: F344/MALE, Target Tissue: Type of Lesion: LYMPHATIC SYSTEM: LYMPHOMA, Dose [Carcinogen]: 400 PPM IN DIET FOR 10 WK THEN 200 PPM TO WK 14 FOLLOWED BY 100 PPM FOR DURATION OF STUDY
  tumour outcome (control, treated, inhibition, significance): 75%, 6%, 92%, not calculated
Carcinogen: 2-AMINO-1-METHYL-6-PHENYLIMIDAZO[4,5-B]PYRIDINE, 105650-23-5, 400 PPM IN DIET FOR 52 WK (STUDY DURATION: 52 WK), Species: RAT, Strain/Sex: F344/MALE, Target Tissue: Type of Lesion: LYMPHATIC SYSTEM: LYMPHOMA, Dose [Carcinogen]: 400 PPM IN DIET FOR 10 WK THEN 200 PPM TO WK 14 FOLLOWED BY 100 PPM FOR DURATION OF STUDY
  tumour outcome (control, treated, inhibition, significance): 75%, 0%, 100%, not calculated
Carcinogen: 4-(METHYLNITROSAMINO)-1-(3-PYRIDYL)-1-BUTANONE, 64091-91-4, 0.25 G/KG DIET (EFFECTIVE DOSE 3.31 UMOL/D) BEGINNING 2 WK PRIOR TO CARCINOGEN TREATMENT AND CONTINUING FOR DURATION, Species: MOUSE, Strain/Sex: STRAIN-A/FEMALE, Target Tissue: Type of Lesion: LUNG: TUMORS, Dose [Carcinogen]: 9.0-9.2 MG/MOUSE (TOTAL DOSE) IN DRINKING WATER ADMINISTERED OVER 7 WK
  tumour outcome (control, treated, inhibition, significance): 28/28 (100%), 25/25 (100%), 0%, not significant
Carcinogen: AZOXYMETHANE, 25843-45-2, 200 PPM IN DIET 7 WK PRIOR TO CARCINOGEN TREATMENT AND CONTINUING FOR STUDY DURATION (STUDY DURATION: 59 WK), Species: RAT, Strain/Sex: F344/MALE, Target Tissue: Type of Lesion: COLON: ADENOCARCINOMA, Dose [Carcinogen]: 15 MG/KG 1/WK FOR 2 WK
  tumour outcome (control, treated, inhibition, significance): 72%, 47%, 35%, p<0.05
Carcinogen: AZOXYMETHANE, 25843-45-2, 200 PPM IN DIET 7 WK PRIOR TO CARCINOGEN TREATMENT AND CONTINUING FOR STUDY DURATION (STUDY DURATION: 59 WK), Species: RAT, Strain/Sex: F344/MALE, Target Tissue: Type of Lesion: COLON: ADENOMA, Dose [Carcinogen]: 15 MG/KG 1/WK FOR 2 WK
  tumour outcome (control, treated, inhibition, significance): 14%, 6%, 57%, p<0.05
Carcinogen: AZOXYMETHANE, 25843-45-2, 200 PPM IN DIET 7 WK PRIOR TO CARCINOGEN TREATMENT AND CONTINUING FOR STUDY DURATION (STUDY DURATION: 59 WK), Species: RAT, Strain/Sex: F344/MALE, Target Tissue: Type of Lesion: SMALL INTESTINE: ADENOCARCINOMA, Dose [Carcinogen]: 15 MG/KG 1/WK FOR 2 WK
  tumour outcome (control, treated, inhibition, significance): 50%, 16%, 68%, p<0.001
Carcinogen: AZOXYMETHANE, 25843-45-2, 200 PPM IN DIET BEGINNING 2 WK PRIOR TO CARCINOGEN TREATMENT AND CONTINUING FOR 3 D POST LAST CARCINOGEN DOSE FOLLOWE, Species: RAT, Strain/Sex: F344/MALE, Target Tissue: Type of Lesion: COLON: INVASIVE ADENOCARCINOMA, Dose [Carcinogen]: 15 MG/KG 1/WK FOR 2 WK
  tumour outcome (control, treated, inhibition, significance): 33%, 3%, 91%, p<0.001
Carcinogen: AZOXYMETHANE, 25843-45-2, 200 PPM IN DIET BEGINNING 2 WK PRIOR TO CARCINOGEN TREATMENT AND CONTINUING FOR 3 D POST LAST CARCINOGEN DOSE FOLLOWE, Species: RAT, Strain/Sex: F344/MALE, Target Tissue: Type of Lesion: COLON: NONINVASIVE ADENOCARCINOMA, Dose [Carcinogen]: 15 MG/KG 1/WK FOR 2 WK
  tumour outcome (control, treated, inhibition, significance): 53%, 43%, 19%, not significant
Carcinogen: AZOXYMETHANE, 25843-45-2, 200 PPM IN DIET BEGINNING 2 WK PRIOR TO CARCINOGEN TREATMENT AND CONTINUING FOR 3 D POST LAST CARCINOGEN DOSE FOLLOWE, Species: RAT, Strain/Sex: F344/MALE, Target Tissue: Type of Lesion: SMALL INTESTINE: INVASIVE ADENOCARCINOMA, Dose [Carcinogen]: 15 MG/KG 1/WK FOR 2 WK
  tumour outcome (control, treated, inhibition, significance): 22%, 7%, 68%, p<0.05
Carcinogen: AZOXYMETHANE, 25843-45-2, 200 PPM IN DIET BEGINNING 2 WK PRIOR TO CARCINOGEN TREATMENT AND CONTINUING FOR 3 D POST LAST CARCINOGEN DOSE FOLLOWE, Species: RAT, Strain/Sex: F344/MALE, Target Tissue: Type of Lesion: SMALL INTESTINE: NONINVASIVE ADENOCARCINOMA, Dose [Carcinogen]: 15 MG/KG 1/WK FOR 2 WK
  tumour outcome (control, treated, inhibition, significance): 6%, 3%, 50%, not significant
Carcinogen: AZOXYMETHANE, 25843-45-2, 200 PPM IN DIET BEGINNING 3 D POST LAST CARCINOGEN DOSE AND CONTINUING FOR DURATION OF STUDY (STUDY DURATION: 56 WK), Species: RAT, Strain/Sex: F344/MALE, Target Tissue: Type of Lesion: COLON: INVASIVE ADENOCARCINOMA, Dose [Carcinogen]: 15 MG/KG 1/WK FOR 2 WK
  tumour outcome (control, treated, inhibition, significance): 33%, 0%, 100%, p<0.001
Carcinogen: AZOXYMETHANE, 25843-45-2, 200 PPM IN DIET BEGINNING 3 D POST LAST CARCINOGEN DOSE AND CONTINUING FOR DURATION OF STUDY (STUDY DURATION: 56 WK), Species: RAT, Strain/Sex: F344/MALE, Target Tissue: Type of Lesion: COLON: NONINVASIVE ADENOCARCINOMA, Dose [Carcinogen]: 15 MG/KG 1/WK FOR 2 WK
  tumour outcome (control, treated, inhibition, significance): 53%, 73%, -38%, not significant
Carcinogen: AZOXYMETHANE, 25843-45-2, 200 PPM IN DIET BEGINNING 3 D POST LAST CARCINOGEN DOSE AND CONTINUING FOR DURATION OF STUDY (STUDY DURATION: 56 WK), Species: RAT, Strain/Sex: F344/MALE, Target Tissue: Type of Lesion: SMALL INTESTINE: INVASIVE ADENOCARCINOMA, Dose [Carcinogen]: 15 MG/KG 1/WK FOR 2 WK
  tumour outcome (control, treated, inhibition, significance): 22%, 20%, 9%, not significant
Carcinogen: AZOXYMETHANE, 25843-45-2, 200 PPM IN DIET BEGINNING 3 D POST LAST CARCINOGEN DOSE AND CONTINUING FOR DURATION OF STUDY (STUDY DURATION: 56 WK), Species: RAT, Strain/Sex: F344/MALE, Target Tissue: Type of Lesion: SMALL INTESTINE: NONINVASIVE ADENOCARCINOMA, Dose [Carcinogen]: 15 MG/KG 1/WK FOR 2 WK
  tumour outcome (control, treated, inhibition, significance): 6%, 3%, 50%, not significant
Carcinogen: AZOXYMETHANE, 25843-45-2, 200 PPM IN DIET FOR 56 WK BEGINNING 2 WK PRIOR TO CARCINOGEN TREATMENT (STUDY DURATION: 56 WK), Species: RAT, Strain/Sex: F344/MALE, Target Tissue: Type of Lesion: COLON (DISTAL): TUMOR, Dose [Carcinogen]: 15 MG/KG 1/WK FOR 2 WK
  tumour outcome (control, treated, inhibition, significance): 47%, 28%, 40%, not significant
Carcinogen: AZOXYMETHANE, 25843-45-2, 200 PPM IN DIET FOR 56 WK BEGINNING 2 WK PRIOR TO CARCINOGEN TREATMENT (STUDY DURATION: 56 WK), Species: RAT, Strain/Sex: F344/MALE, Target Tissue: Type of Lesion: COLON (PROXIMAL): TUMOR, Dose [Carcinogen]: 15 MG/KG 1/WK FOR 2 WK
  tumour outcome (control, treated, inhibition, significance): 39%, 30%, 23%, not significant
